Where a name gives a salt, the structure may show the parent alone. Each block holds one compound with its values, some of them ahead of it.
Key:
[1] = Dynamic vapor sorption (DVS), hygroscopicity; format: physicochemical; details: DVS
Text: Dynamic vapor sorption (DVS) measures the uptake of a vapor (typically water) by a sample when exposed to a changing relative humidity. The loss of water can also be measured as relative humidity is decreased. Hygroscopic materials tend to absorb water more readily than non-hygroscopic. In some cases, hydrates absorb water to create higher-order hydrates (e.g., a monohydrate converting to a dihydrate when exposed to increasingly humid conditions). In some salts of the disclosure, moisture is retained upon exposure in a DVS experiment and little or no weight loss is observed upon heating from room temperature. In such experiments, the hygroscopic nature of the salt under study may indicate the formation of a hydrate from an anhydrate. […] Exemplary methods for collecting DVS data are set forth in Example 26.
Dynamic vapor sorption data was collected on a Surface Measurement System DVS Intrinsic instrument. The samples were not dried prior to analysis. Sorption and desorption data were collected over a range from 5% to 95% RH in 10% RH increments under a nitrogen purge. The equilibrium criteria used for the analyses were 0.001 dm/dt weight change in 5 minutes with a minimum step time of 30 minutes and maximum equilibration time of 180 minutes with a 3 minute data logging interval. Data were not corrected for the initial moisture content of the sample.

[2] = Humidity / water activity stability of crystalline 25HC3S sodium forms; format: physicochemical
[3] = system: cholesterol secretion and degradation; details: shown previously; cited from earlier work
lipid biosynthesis = details: shown previously; cited from earlier work

Hygroscopicity (in words) [1]: hygroscopic
Water activity above which a liquid crystal may form ([2]; high water activities): above 0.73
SMILES: CC(CCCC(C)(C)O)C1CCC2C3CC=C4CC(OS(=O)(=O)O)CCC4(C)C3CCC12C (centres unmarked) [Form I, reference compound]

SMILES: C[C@H](CCCC(C)(C)O)[C@H]1CCC2C3CC=C4C[C@@H](OS(=O)(=O)O)CC[C@]4(C)C3CC[C@@]21C (stereo partly drawn) [Salt 25HC3S, [(3S,10R,13R,17R)-17-[(1R)-5-hydroxy-1,5-dimethyl-hexyl]-10,13-dimethyl-2,3,4,7,8,9,11,12,14,15,16,17-dodecahydro-1H-cyclopenta[a]phenanthren-3-yl]sulfate]
Effect on cholesterol secretion and degradation [3]: increases
Effect on lipid biosynthesis (lipid biosynthesis): decreases

Behaviour under humid conditions (in words) ([2]; humid conditions): stabilizes as a hydrate
SMILES: C[C@H](CCCC(C)(C)O)[C@H]1CC[C@H]2[C@@H]3CC=C4C[C@@H](OS(=O)(=O)[O-])CC[C@]4(C)[C@H]3CC[C@]12C.[Na+] [crystalline 25HC3S sodium, Sodium [(3S,10R,13R,17R)-17-[(1R)-5-hydroxy-1,5-dimethyl-hexyl]-10,13-dimethyl-2,3,4,7,8,9,11,12,14,15,16,17-dodecahydro-1H-cyclopenta[a]phenanthren-3-yl]sulfate]

From patent US20260317367A1, “SALTS INCLUDING CRYSTALLINE SALTS OF 25-HYDROXY-CHOLEST-5-EN-3-SULFATE AND METHODS FOR PREPARING SAME” (Durect Corporation, priority 2022, published 2026)
